# According to a melting point compilation (Tetko et al.; mined from patent text by program, amines drawn as free bases though some values may be those of a salt):
row,SMILES,melting point
1,Nc1nccc(OCc2ccccc2)c1N,135 to 136 °C
2,C=CCCCCNC(=O)c1cnc(OCC(O)CNC(C)(C)C)s1 (stereo not drawn),80 to 81 °C
3,CCCc1cc(-c2ccc(Cl)cc2)nc2c(C(=O)Nc3cccc(S(=O)(=O)NC(C)(C)CO)c3)cnn12,207 to 208 °C
4,Clc1ccc(-c2ccc(OCCCBr)cc2)cc1,103 to 105 °C
5,CCOc1cc2c(cc1OC)C(c1ccc(-c3nnn(CC)n3)cc1)=N[C@H]1CCCC[C@@H]21 (racemic),167 to 170 °C
6,CN1CC(CO)C(c2ccccc2)(c2ccccc2)C1=O (stereo not drawn),148 to 150 °C
7,Cc1cccnc1-c1cncc(OC2SCC(O)C(O)C2O)c1 (stereo not drawn),162 to 175 °C
8,CC(C)(C)n1ncc(SCc2ccc(Cl)cc2)c(Cl)c1=O,142 to 143 °C
9,FC(F)Oc1ccc2c(Cc3c(Cl)cncc3Cl)nnc(N3CCOCC3)c2c1,129 to 131 °C
10,FC(F)(F)c1cccc(C2OC3(CCNCC3)N3CCCCC23)c1 (stereo not drawn),158 to 160 °C
11,COc1cc2ccccc2c(Br)c1O,100 to 101 °C
12,O=C(O)c1cccn2cc(-c3ccccc3)nc12,226 °C
13,CCCc1nc(N2CCOCC2)c2cscc2n1,102 to 105 °C
14,Nc1sc(CC(C(=O)O)C(=O)O)cc1C(=O)c1ccccc1Cl,150 to 160 °C
15,CCN1CCCCC1CCc1ccccc1NC(=O)c1ccc(OC)cc1 (stereo not drawn),136 to 138 °C
16,CCCCc1nc2cccc(C(=O)O)c2n1Cc1ccc(-c2ccccc2-c2nc(=O)o[nH]2)cc1,165 to 167 °C
17,O=C(O)C1=Cc2cc(S(=O)(=O)NCc3ccco3)ccc2OC1C(F)(F)F (stereo not drawn),170 to 173 °C
18,CCCCCCCCCCCCCCCCCCOc1ccccc1NC(=O)CC(=O)C(C)(C)SCC,60 to 62 °C
19,CC(C)COc1c(C2CCN(CCCCNC(=O)c3ccc(-c4ccc(C(F)(F)F)cc4)cc3)CC2)ccc2c1CCCC2,165 °C
20,Cc1[nH]c(=O)c(C#N)cc1C(=O)n1ccnc1,237 to 238 °C
21,Nc1ccc(S(=O)(=O)c2cc(-c3ccccc3Cl)nc(N3CCCC3)c2)cc1,188 to 190 °C
22,Cc1cc(NC(=O)C(C)(O)COc2ccc(CCCCl)cc2)ccc1[N+](=O)[O-] (stereo not drawn),110 to 112 °C
23,CCOC(=O)c1cnoc1-c1ccc(F)c(F)c1,64 to 65 °C
24,Cc1cnc2c(c1)COP(=S)(c1ccccc1)O2 (stereo not drawn),97 to 98 °C
25,CCOC(=O)N1CCN(C2=C(Cl)C(=O)c3nsnc3C2=O)CC1,152 to 154 °C
26,N#Cc1cn(-c2c(Cl)cc(C(F)(F)F)cc2Cl)c(N)c1I,130 to 132 °C

row,SMILES,melting point
1,C(=Cc1ccc2ccccc2c1)c1ccccc1,143 to 145 °C
2,C#CCOc1ccc(NCc2ccc(Cl)nc2)c(C(=O)c2ccc(C(C)C)cc2)c1,96 °C
3,Cc1nc(C(=O)Cl)c(CCc2ccccc2)o1,38 to 39 °C
4,CC1(C)CC(=O)c2c(NCc3ccccn3)sc(-c3cc[nH]n3)c2C1,210 to 213 °C
5,O=C(O)C(Cl)=C(Cl)C(=O)N(CCCl)CCCl,107 to 110 °C
6,CNC(=S)NN=C(CCCOC(=O)Nc1ccccc1)c1ccccc1,155 to 157 °C
7,CCOC(=O)c1cn(C2CC2)c2c(F)c(N3CC(OS(C)(=O)=O)C3)c(F)cc2c1=O,191 to 193 °C
8,CCCCCCCCOc1ccc(C(=O)COC(C)=O)cc1,44 to 45 °C
9,O=c1ncc(Cl)cn1CSc1ccc([N+](=O)[O-])cc1,165 °C
10,COc1ccc(S(=O)(=O)c2c(C(C)C)n(C)c3ccccc23)cc1,125 °C
11,Cc1csc(-c2cc3cccc(NS(=O)(=O)c4cccs4)c3[nH]2)n1,181 to 183 °C
12,O=C(O)CCCCCOc1cccc(OCc2ccccc2)c1,72 to 73 °C
13,CCC(CC)Nc1nc(N)nc(C(C)(C)F)n1,104 to 106 °C
14,COc1ccc(CNc2ccc(C#N)cc2F)cc1,113 °C
15,Cn1c([N+](=O)[O-])cnc1-c1nc2ccccc2n1CCN1CCOCC1,237 °C
16,CC(=O)N1CCN(c2c(F)c(C)c3c(=O)c(C(=O)O)cn(C4CC4)c3c2F)CC1,217 to 220 °C
17,Oc1cccc(OCCCCOc2cccc(O)c2)c1,103 to 106 °C
18,CCOC(=O)c1cccc(-c2ccnc(OCCc3ccc(OC)c(OC)c3)n2)c1,94 to 95 °C
19,C=C1COc2c(N3CCC(NC(=O)OC(C)(C)C)C3)c(F)cc3c(=O)c(C(=O)O)cn1c23 (stereo not drawn),219 to 220 °C
20,NNC(=O)Nc1cccc2c1C(=O)c1c-2n[nH]c1-c1ccc(N2CCNCC2)cc1,257 °C
21,COc1ccccc1CCNC(=O)c1ccc2c(c1)C=CC(C)(C)O2,125 to 130 °C
22,COc1cccc(OC)c1C(=O)P(=S)(CC(C)C)C(=O)c1c(OC)cccc1OC,145 to 147 °C
23,O=C1O[C@@H](CO)CN1c1cccc(F)c1,106 to 108 °C
24,COc1ccc(N2C(=O)/C(=C/C(C)=NO)C2c2ccccc2)cc1 (stereo not drawn),204 to 206 °C
25,Cc1cccc(-c2n[nH]cc2-c2ccc(F)c(-c3cnn(C)c3)c2)n1,155 to 156 °C
26,CCCC(=O)NCCCC1c2ccccc2C=Cc2ccccc21,76 to 80 °C

row,SMILES,melting point
1,C(=Nn1ccnc1)c1ccccc1,115 °C
2,C#CCc1c(C)nc2c(OCc3ccccc3CO)cccn12,137 to 138 °C
3,Cc1c(C)c2c(c(C)c1NCc1ccccc1)C(c1ccc(-c3ccccc3)cc1)CO2 (stereo not drawn),77 to 78 °C
4,Cc1ccc2c(c1)NC(NC(C)C)=NS2(=O)=O,137 to 139 °C
5,CC#CCOc1ccc(SC(C(=O)NO)c2ccc(-c3cccs3)cc2)cc1 (stereo not drawn),182 °C
6,CC(C)C1(C)C(=O)N=C2c3ncc(C4OCCO4)cc3C(=O)N21 (stereo not drawn),146 to 148 °C
7,COC(=O)c1cc(-c2ccc(C)cc2)n(Cc2ccc(Cl)c(Cl)c2)n1,98.6 °C
8,CNc1nc(SC)ncc1C,134 °C
9,Nc1ccc2nc(-c3ccccc3)oc2c1,212 to 214 °C
10,COc1ccc(C2=NN(C3CCCCCCC3)C(=O)[C@H]3CC=CC[C@@H]23)cc1OC (relative stereo),75 to 77 °C
11,CC(C)c1nsc(N2CCN(C(=O)Nc3noc4ccccc34)CC2)n1,178 to 179 °C
12,CCOC(=O)c1cnc2c(c(C)nn2C)c1N(C)S(=O)(=O)c1ccc(Oc2ccncc2)cc1,117 to 119 °C
13,c1cnnc(N=C2SC[C@@H]3Cc4ccccc4CN23)c1,140 to 142 °C
14,O=[N+]([O-])c1ccc(-c2scc3c2OCCO3)cc1,184 to 186 °C
15,CCn1nc(-c2ccccc2)c(C(=O)O)c(Nc2cccnc2)c1=O,255 to 257 °C
16,CCCc1nc2c(N)nc(C)c(C)c2n1C1(OC)CCCCC1,192 to 193 °C
17,N=C(N)c1ccc(O)c(C(=O)c2ccccc2)c1,186 to 189 °C
18,COCCNc1c([N+](=O)[O-])cc(C)cc1[N+](=O)[O-],75 °C
19,CCCCOC1OC(CO)C(O)(N(CC)C(=O)N(CCCl)N=O)C(O)C1O (stereo not drawn),75 to 77 °C
20,N#CC(Cl)Cc1cccc([N+](=O)[O-])c1 (stereo not drawn),90 °C
21,CCOC(=O)C(=O)c1ccc(OCCCCCCCCCCCCOc2ccccc2)cc1,58 to 59 °C
22,Cc1c(-c2ccccc2)oc2c(CN(C)CCCl)cccc2c1=O,118 to 120 °C
23,COc1ccc2c(c1)c(-c1cc3c(C(=O)NC(C)(C)CO)ccnc3[nH]1)cn2C,210 to 212 °C
24,CS(=O)(=O)Nc1ccc(-c2ccc(S(=O)(=O)n3ccc(C=CC(=O)NO)c3)cc2)cc1,160 to 167 °C
25,COc1ccc(-n2ccc3ccccc32)cc1,52 to 54 °C
26,NC(=S)c1c[nH]cc1-c1cccc(Cl)c1Cl,128 to 132 °C

row,SMILES,melting point
1,Cc1cc(C(C)NC(=O)N(C)O)c(C)s1 (stereo not drawn),104 to 106 °C
2,CCOC(=O)COc1cc2onc(-c3ccccc3F)c2cc1Br,130 to 132 °C
3,COC(=O)c1ccccc1C1=NC(C)(C(C)C)C(=O)N1 (stereo not drawn),113 to 114 °C
4,CNC(=O)c1ccc(N2CCC(OC3CCN(C4CCC4)CC3)CC2)cn1,110 °C
5,Cc1cc(C2(C(F)(F)F)CC(Cl)=NO2)ccc1NC(=O)OC(C)(C)C (stereo not drawn),83 to 85 °C
6,Cc1ccnc2c1C(=O)CC(c1cccc(Cl)c1Cl)C2 (stereo not drawn),123 to 124 °C
7,O=c1[nH]c2cc(F)c(F)cc2c(=O)n1CCCN1CC=C(c2ccc(Cl)cc2)CC1,204 to 205 °C
8,NC(=O)C=Cc1cc2c(Oc3ccc(Br)cc3)cncc2s1,195 to 196 °C
9,Nc1ccc(NC(=O)CN2CCCCC2)cc1,106 to 107 °C
10,N#Cc1ccc(-c2cccc3cncn23)cc1,117 to 118 °C
11,N#CC1CC(c2ccccc2Cl)=NC1c1ccc(-c2ccc(OC(F)(F)F)cc2)cc1 (stereo not drawn),132 °C
12,Cc1c(C(=O)Nc2ccc(OCC(C)(C)C)c(C#N)c2)cnn1-c1cccc(C(F)(F)F)c1,116 to 118 °C
13,NC(=O)c1ccc(C(c2ccccc2[N+](=O)[O-])(C(F)(F)F)C(F)(F)F)cc1,147 to 148 °C
14,Cc1cc(NN)c2ccccc2n1,195 to 197 °C
15,CN1C2C=C(c3ccc(Cl)c(Cl)c3)CC1CC2 (stereo not drawn),44 to 52 °C
16,CC(=O)N1CCN(C(=O)C2(C#N)Nc3cc(C)c(-c4ccccc4)c(N4CC[C@H](N(C)C)C4)c3O2)CC1 (stereo partly drawn),102 to 105 °C
17,C=CCOc1ccc(Oc2ccc(C(=O)OC)cc2)cc1,75 °C
18,CC1Cc2cc3c(cc2C(c2ccc([N+](=O)[O-])cc2)=NN1c1n[nH]c(=O)s1)OCO3 (stereo not drawn),288 °C
19,O=C(O)c1ccc(C(=O)OC(c2ccc3c(c2)OCO3)c2ccc3c(c2)OCO3)s1,141 to 148 °C
20,CCc1nc(N)nc(N)c1CCC(C)c1ccc(C(F)(F)F)cc1 (stereo not drawn),48 to 55 °C
21,COc1cccc(CN(CCC(=O)O)c2nc(NC(=O)Nc3ccccc3OC)nc(Oc3ccc4ccccc4c3)n2)c1,189 to 194 °C
22,CC(C)(C)NS(=O)(=O)c1ccccc1C(O)c1ccccc1 (stereo not drawn),160 °C
23,CCC(O)(c1ccc(-c2ccccc2)cc1)C1CC=CC1 (stereo not drawn),82 to 84 °C
24,CC(=O)Nc1nc(C(F)(F)F)ns1,178 °C
25,CCCCCNC(=O)N(C)c1cccc(-c2ccc(C=C(OC)C(=O)O)cc2OCCCC)c1,61 °C
